Laboratory results: the NIST ThermoML archive (doi:10.1016/j.jct.2013.04.015)

Tests used:
[1] = for surface tension liquid-gas: Wilhelmy plate method; for mass density: 101 kPa, Liquid, Vibrating tube method
[2] = xn = mol fraction of the nth substance listed; conditions: for surface tension liquid-gas: Wilhelmy plate method; for mass density: 101 kPa, Liquid, Vibrating tube method

CCO [ethanol]
[1]
Conditions	mass density [kg/m3]	surface tension liquid-gas [mN/m]
298.15 K	784.7	22.11
308.15 K	776.2	21.13
318.15 K	767	20.48

CCCCn1cc[n+](C)c1.C[C@H](O)C(=O)[O-] [1-butyl-3-methylimidazolium L-lactate] + CO
[2]
Conditions	mass density [kg/m3]	surface tension liquid-gas [mN/m]
298.15 K, x1 = 0.0121	–	23.38
298.15 K, x1 = 0.0353	–	24.72
298.15 K, x1 = 0.0496	–	25.63
298.15 K, x1 = 0.0699	–	26.72
298.15 K, x1 = 0.0901	–	28.06
298.15 K, x1 = 0.0998	960.5	–
298.15 K, x1 = 0.1051	–	28.6
298.15 K, x1 = 0.1968	1022.4	–
298.15 K, x1 = 0.1995	–	31.01
298.15 K, x1 = 0.3	1063.1	–
298.15 K, x1 = 0.3011	–	33.55
298.15 K, x1 = 0.3999	1075.9	–
298.15 K, x1 = 0.4038	–	35.7
298.15 K, x1 = 0.5	1082.9	–
298.15 K, x1 = 0.5029	–	36.97
298.15 K, x1 = 0.5996	1088	–
298.15 K, x1 = 0.614	–	38.06
298.15 K, x1 = 0.7001	1090.5	–
298.15 K, x1 = 0.7037	–	38.57
298.15 K, x1 = 0.8002	1091.5	–
298.15 K, x1 = 0.8056	–	39.25
298.15 K, x1 = 0.8988	1097.8	–
298.15 K, x1 = 0.9152	–	40.89
298.15 K, x1 = 1	1111.2	42.92
308.15 K, x1 = 0.0115	–	22.56
308.15 K, x1 = 0.0346	–	24.12
308.15 K, x1 = 0.0544	–	25.1
308.15 K, x1 = 0.0702	–	26.05
308.15 K, x1 = 0.091	–	27.26
308.15 K, x1 = 0.0998	956.6	–
308.15 K, x1 = 0.1058	–	28.32
308.15 K, x1 = 0.1968	1019.4	–
308.15 K, x1 = 0.2002	–	30.7
308.15 K, x1 = 0.3	1057.4	–
308.15 K, x1 = 0.3033	–	33.15
308.15 K, x1 = 0.3999	1070.5	–
308.15 K, x1 = 0.4003	–	35.37
308.15 K, x1 = 0.5	1077.4	–
308.15 K, x1 = 0.5032	–	36.69
308.15 K, x1 = 0.5913	–	37.46
308.15 K, x1 = 0.5996	1084.2	–
308.15 K, x1 = 0.7001	1085.4	–
308.15 K, x1 = 0.7064	–	37.66
308.15 K, x1 = 0.791	–	38.03
308.15 K, x1 = 0.8002	1087.2	–
308.15 K, x1 = 0.8938	–	39.37
308.15 K, x1 = 0.8988	1089	–
308.15 K, x1 = 1	1104.2	42.37
318.15 K, x1 = 0.0118	–	21.91
318.15 K, x1 = 0.0364	–	23.48
318.15 K, x1 = 0.0527	–	24.57
318.15 K, x1 = 0.0711	–	25.49
318.15 K, x1 = 0.0907	–	26.91
318.15 K, x1 = 0.0998	953.2	–
318.15 K, x1 = 0.1085	–	27.8
318.15 K, x1 = 0.1968	1014.3	–
318.15 K, x1 = 0.2003	–	29.96
318.15 K, x1 = 0.3	1051.9	–
318.15 K, x1 = 0.302	–	32.56
318.15 K, x1 = 0.3999	1066.8	–
318.15 K, x1 = 0.4072	–	35.2
318.15 K, x1 = 0.5	1074.7	–
318.15 K, x1 = 0.5096	–	36.52
318.15 K, x1 = 0.5996	1077.7	–
318.15 K, x1 = 0.6103	–	36.74
318.15 K, x1 = 0.7001	1078	–
318.15 K, x1 = 0.7054	–	36.95
318.15 K, x1 = 0.8002	1078.9	–
318.15 K, x1 = 0.8108	–	37.31
318.15 K, x1 = 0.8845	–	38.3
318.15 K, x1 = 0.8988	1079.9	–
318.15 K, x1 = 1	1097.7	42.01
